Laboratory results published in publication PMC10855113, “Opioid Analgesic as a Positive Allosteric Modulator of Acid-Sensing Ion Channels” (International Journal of Molecular Sciences, 2024).
Read-outs that look alike come from different tables or passages of the source. Where a SMILES comes first, the peptide text is derived from it. Bridges are numbered along the chain shown (N, C = ends). Where no end group is shown, it is not given here. [ ]: non-standard residue; d: D form.

How the values were obtained:
ASIC channels [1] = conditions: cited from earlier work
rat ASIC1a [2] = biological target: T1, rat ASIC1a (Rattus norvegicus, UniProt P55926); test: two-electrode voltage clamp, homomeric rat ASIC1a in X. laevis oocytes; type: cell-based
T1 construct: expressed in transfected cells; host or cells: Xenopus laevis oocytes injected with cRNA from a PCi plasmid
T1 sequence (P55926 1-526): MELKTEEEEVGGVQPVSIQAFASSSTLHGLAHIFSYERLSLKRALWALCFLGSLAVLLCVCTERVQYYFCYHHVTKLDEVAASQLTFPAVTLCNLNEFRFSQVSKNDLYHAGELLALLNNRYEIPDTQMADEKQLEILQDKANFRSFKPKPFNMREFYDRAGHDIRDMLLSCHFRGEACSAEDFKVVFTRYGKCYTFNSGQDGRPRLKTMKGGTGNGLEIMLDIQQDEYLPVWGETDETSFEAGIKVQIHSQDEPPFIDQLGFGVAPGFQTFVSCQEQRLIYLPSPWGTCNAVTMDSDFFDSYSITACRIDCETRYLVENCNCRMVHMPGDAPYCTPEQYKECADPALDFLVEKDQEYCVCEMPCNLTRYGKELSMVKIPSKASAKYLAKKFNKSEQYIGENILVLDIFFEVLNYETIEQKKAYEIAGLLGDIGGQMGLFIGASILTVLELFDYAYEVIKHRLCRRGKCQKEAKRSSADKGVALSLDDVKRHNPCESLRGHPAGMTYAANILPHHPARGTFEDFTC

[3] = solution for subcutaneous administration; ref manufacturer's website https://sotex.ru/production/catalog/detail.php?ELEMENT_ID=4952; cited from earlier work
Text: Due to the modulating effect of Taf towards ASIC3 in peripheral neurons, the proven analgesic effect of Taf on human may be accompanied by the development of side effects such as pain, mechanical hyperalgesia, inflammatory muscle and joint hyperalgesia, etc., where ASIC3 plays a crucial role. In addition, the significant modulating effect on ASIC1b/3 heteromers (Figure 7) may also have a negative impact on both peripheral acute and acid-induced chronic pain, where the ASIC1b-containing channels also play an important role. Indeed, the recommended dose for subcutaneous a ...

rat ASIC1a [4] = biological target: T1, rat ASIC1a; test: steady-state desensitization of rat ASIC1a; type: cell-based; conditions: 1 mM Taf; without Taf 9.1 ± 2.5%; stimulus pH 5.5; mean ± SEM, n = 5; p = 0.9; read-out: integral current at conditioning pH 7.0, % of control
rat ASIC3 [5] = biological target: T2, rat ASIC3 (Rattus norvegicus, UniProt O35240); test: two-electrode voltage clamp, homomeric rat ASIC3 in X. laevis oocytes; type: cell-based
T2 construct: expressed in transfected cells; host or cells: Xenopus laevis oocytes injected with cRNA from a PCi plasmid
T2 sequence (O35240 1-533): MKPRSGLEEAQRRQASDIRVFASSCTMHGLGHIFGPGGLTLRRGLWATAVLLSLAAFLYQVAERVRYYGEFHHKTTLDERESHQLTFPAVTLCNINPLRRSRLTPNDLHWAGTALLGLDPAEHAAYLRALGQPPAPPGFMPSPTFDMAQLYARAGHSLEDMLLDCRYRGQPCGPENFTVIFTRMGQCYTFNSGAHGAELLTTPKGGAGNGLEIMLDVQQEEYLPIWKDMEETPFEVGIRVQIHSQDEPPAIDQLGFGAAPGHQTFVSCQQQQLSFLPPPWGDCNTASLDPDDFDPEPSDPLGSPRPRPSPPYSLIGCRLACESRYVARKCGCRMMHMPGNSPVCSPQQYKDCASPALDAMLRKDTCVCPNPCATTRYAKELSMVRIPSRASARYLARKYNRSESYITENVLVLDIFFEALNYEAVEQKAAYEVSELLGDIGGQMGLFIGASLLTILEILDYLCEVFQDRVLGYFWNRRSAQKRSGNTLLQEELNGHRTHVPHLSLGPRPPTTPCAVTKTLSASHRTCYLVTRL

rat ASIC3 [6] = biological target: T2, rat ASIC3; test: steady-state desensitization (SSD) of rat ASIC3; type: cell-based; conditions: pH 7, without Taf 1.4 ± 0.2%, control = pH drop 7.4 to 5.5, mean ± SEM, n = 5, read-out: integral current at conditioning pH 7.0, % of control
human ASIC3 [7] = biological target: T3, human ASIC3 (Homo sapiens, UniProt Q9UHC3); test: two-electrode voltage clamp, human ASIC3 in X. laevis oocytes; type: cell-based
T3 construct: expressed in transfected cells; host or cells: Xenopus laevis oocytes injected with cRNA from a pVAX1 plasmid
T3 sequence (Q9UHC3 1-531): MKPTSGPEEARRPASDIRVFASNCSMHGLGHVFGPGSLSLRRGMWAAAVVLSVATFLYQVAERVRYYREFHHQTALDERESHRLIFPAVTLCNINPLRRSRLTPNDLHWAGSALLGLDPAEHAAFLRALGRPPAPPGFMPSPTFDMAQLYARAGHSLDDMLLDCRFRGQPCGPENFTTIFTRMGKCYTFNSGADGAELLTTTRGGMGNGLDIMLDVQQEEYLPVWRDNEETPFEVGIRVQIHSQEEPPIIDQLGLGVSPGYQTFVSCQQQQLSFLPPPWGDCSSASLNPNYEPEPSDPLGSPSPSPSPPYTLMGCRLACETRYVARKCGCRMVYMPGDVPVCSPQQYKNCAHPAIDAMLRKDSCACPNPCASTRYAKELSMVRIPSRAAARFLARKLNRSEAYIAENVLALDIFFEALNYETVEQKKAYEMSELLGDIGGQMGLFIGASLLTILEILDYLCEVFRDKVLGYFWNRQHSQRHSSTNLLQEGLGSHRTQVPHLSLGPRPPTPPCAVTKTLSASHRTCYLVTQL

human ASIC3 [8] = biological target: T3, human ASIC3; test: steady-state desensitization of human ASIC3; type: cell-based; conditions: pH 7.4; 1 mM Taf; without Taf 11 ± 2%; control = pH drop 8.0 to 5.5; mean ± SEM, n = 5; p = 0.005; read-out: total integral current at conditioning pH 7.4, % of control
rat ASIC3 [9] = biological target: T2, rat ASIC3; test: cell-based
ASIC channels [10] = tested on: ASIC channels; set-up: method as in PMID 34721074; conditions: dual-action ligand; ref [39]; cited from earlier work
ASIC3 [11] = tested on: ASIC3; set-up: method as in PMID 37918499; conditions: suppressing morphine-induced microglial activation through ASIC3 inhibition; ref [40]; cited from earlier work
ASIC3 [12] = conditions: mice; activation of ASIC3; ref [31],[32]; cited from earlier work
Text: In this study, we have investigated the pharmacological effect of tafalgin (Taf) on ASICs. […] These channels, preferably having a neuronal localization, play an important role in the functioning of CNS and PNS, and are involved in the regulation of synaptic plasticity and learning, the fear perception, and responses to ischemic stroke, multiple sclerosis, and nociception. Positive modulators of ASICs are shown to have ...

[13] = tested on: ASIC1a and ASIC1a-containing channels; conditions: cited from earlier work
ASIC1 = conditions: cited from earlier work

Compound: COc1ccc2c3c1O[C@H]1C(=O)CC[C@@]4(O)[C@@H](C2)N(C)CC[C@]314 [oxycodone]
- effect on ASIC channels (ASIC channels [1]): positive modulating effect

Compound: C[C@@H](NC(=O)[C@@H](N)Cc1ccc(O)cc1)C(=O)N[C@@H](Cc1ccccc1)C(=O)NCC(N)=O [Taf, Tyr-D-Ala-Phe-Gly-NH2] (H-Y[dA]FG-NH2)
- EC50 (rat ASIC1a [2]): 1050 ± 270 µM
- increase in the integral current (rat ASIC1a [2]; 0.3 mM Taf, Vh −50 mV, pH 7.4 to 5.5, mean ± SEM, n = 5, p < 0.001): 40 ± 5%
- integral current Imax, % of control (rat ASIC1a [2]; pH 7.4 to 5.5, mean ± SEM, n = 10, same as rASIC3 (p = 0.45)): 332 ± 103%
- side effects [3]: peripheral neuropathy, itching, and pain at the injection site
- remaining activity at 1000 µM (rat ASIC1a [4]): 9.4 ± 2.5%
- EC50 (rat ASIC3 [5]): 86 ± 24 µM
- increase in the integral current, protocol p.-a. (rat ASIC3 [5]; 0.3 mM Taf pre-applied 30 s in resting state, conditioning pH 7.4, stimulus pH 5.5, mean ± SEM, n = 5, p < 0.001): 116 ± 5%
- increase in the integral current (rat ASIC3 [5]; 0.3 mM Taf, Vh −50 mV, pH 5.5 stimulus, isoform screening, mean ± SEM, n = 5, p < 0.001): 115 ± 6%
- maximum current (Imax), to control (rat ASIC3 [5]; integral current vs control (pH drop from 7.4 to 5.5), mean ± SEM, n = 9): 251 ± 15%
- remaining activity at 300 µM (rat ASIC3 [6]; 0.3 mM Taf, p = 0.009): 3.6 ± 0.3%
- remaining activity at 2000 µM (rat ASIC3 [6]; 2 mM Taf): 50 ± 3%
- EC50 (human ASIC3 [7]): 330 ± 80 µM
- Imax (upper asymptote), % of control (human ASIC3 [7]; integral current, pH 8.0 to 5.5, mean ± SEM, 5 cells): 373 ± 28%
- recommended subcutaneous dose concentration (~9 mM) over EC50 for human ASIC3 (human ASIC3 [7]; ~9 mM solution vs EC50 on hASIC3): approximately 30 times
- remaining activity at 1000 µM (human ASIC3 [8]): 22 ± 4%

Compound: CN1CC[C@]23c4c5ccc(O)c4O[C@H]2[C@@H](O)C=C[C@H]3[C@H]1C5 [morphine]
- effect on ASIC channels (ASIC channels [1]): negative modulators

Compound: DAMGO
- effect on ASIC channels (ASIC channels [1]): negative modulators

Compound: GTACSCGNSKGIYWFYRPSCPTDRGYTGSCRYFLGTCCTPAD (disulfide 4-37, 6-30, 20-38) [APETx2]
- τdes (rat ASIC3 [9]; 100 nM APETx2, control 282 ± 22 ms, mean ± SEM, n = 5, p = 0.2): 240 ± 22 ms
- nH of inhibition in the presence of Taf (rat ASIC3 [9]; APETx2 + 0.3 mM Taf, mean ± SEM, 5–6 cells): 1.11 ± 0.05
- nH of inhibition (rat ASIC3 [9]; APETx2 alone, mean ± SEM, 5–6 cells): 1.37 ± 0.05
- inhibition of the channel (rat ASIC3 [9]; APETx2 alone, pH 7.4 to 5.5): completely inhibited the channel

Compound: N=C(N)NC(=O)c1nc(Cl)c(N)nc1N [Ami, amiloride]
- action on ASIC channels (ASIC channels [10]): capable of blocking ASIC channels and acting as an ASIC3-positive modulator
- nH of inhibition in the presence of Taf (rat ASIC3 [9]): 1.06 ± 0.37
- residual integral current in the presence of Taf, % of control (rat ASIC3 [9]): 129 ± 9%
- τdes (rat ASIC3 [9]): 732 ± 46 ms
- IC50 (rat ASIC3 [9]; half-maximal inhibitory concentration (IC50)): 66.9 ± 5.2 µM
- IC50 (rat ASIC3 [9]; half-maximal inhibitory concentration (IC50) in the presence of Taf): 61.5 ± 21.2 µM
- nH of inhibition (rat ASIC3 [9]; pH 7.4): 0.87 ± 0.05
- residual integral current (lower asymptote), % of control (rat ASIC3 [9]; pH 7.4): 36 ± 2%
- chronic morphine tolerance (ASIC3 [11]): reduce chronic morphine tolerance

Compound: Cc1nc(NC(=N)N)nc2ccccc12 [2-guanidine-4-methylquinazoline]
- nocifensive behavior (ASIC3 [12]): induce nocifensive behavior in mice

Compound: dynorphin
- effect on proton-evoked currents [13]: restore the proton-evoked currents
- acidosis-induced neuronal death (ASIC1): increase the acidosis-induced neuronal death
